In patent publication US20210330756A1, “Acetylation of Miro1” (University of South Carolina, priority 2020, published 2021):

Test system: growth cones of DRG neurons
Experiment: Immunolabeling of growth cone cytoskeleton (Ac-α-tubulin, tyrosinated α-tubulin, F-actin)
Type: cell-based, rat
Procedure: We tested for this specificity in the adult DRG neurons from above by immunoblotting. […] (A) Number of mitochondria in growth cones after exposing DRG cultures to 10 μM TubA versus vehicle (control) for 1 h is shown as average fold-change in number of mitochondria per growth cone±SEM (n=13 axons across three culture preparations; *, P≤0.05 by one-way ANOVA with Bonferroni post hoc analysis). (B) Representative EMs of Remak bundles (arrowheads) in naive Sciatic nerve and nerves after 2 h vehicle (DMSO) or TubA injection are shown. Arrows indicate mitochondria in the unmyelinated axons. Note that a Schwann cell nucleus (asterisk) is seen in the Remak bundle for DMSO image but not the other two micrographs (scale bar=3 μm). (C) Quantification of number of mitochondria per unmyelinated axon from EM images as in B is shown as average±SEM (n≥5; *****, P≤0.0001 by one-way ANOVA with Bonferroni post hoc analysis). (D-F) Quantification for indicated parameters for mitochondrial transport in sciatic nerve in vivo using tetramethylrhodamine, ethyl ester, perchlorate to visualize mitochondria is shown.
We used a sequential immunostaining approach for simultaneous detection of tyrosinated α-tubulin (by indirect immunofluorescence), Ac-α-tubulin, and β-tubulin (by direct immunofluorescence). Phalloidin staining was also used to detect F-actin. Monoclonal mouse anti-Ac-α-tubulin IgG (6-11-B1; Sigma-Aldrich; T6793) was conjugated to Alexa Fluor 405 using the Zenon Labeling Kit per the manufacturer's instructions (Life Technologies; Z-25013). After fixation and permeabilization, coverslips were incubated with anti-Tyr-α-tubulin IgG (1:100; Sigma-Aldrich; T9028) in 1% blocking buffer overnight at 4° C. in a humidified chamber. […] Coverslips were washed twice with PBS then stained with Actin-Red 555 Ready Probe for 30 min (1:25 dilution of 200 /Uml stock; Thermo Fisher Scientific; R37112). […] Epifluorescence and confocal imaging was used for imaging of fixed samples to obtain protein localization and quantitation data. […]

CN1CCc2c(c3ccccc3n2Cc2ccc(C(=O)NO)cc2)C1 [TubA, tubastatin]
anti-Ac-α-tubulin immunoreactivity in growth cones (10 μM vs control cultures): significant increase in anti-Ac-α-tubulin immunoreactivity in growth cones
tyrosinated α-tubulin in growth cones (10 μM vs control cultures): no change in tyrosinated α-tubulin
growth cone signals for F-actin (TubA-treated cultures): consistently decreased
